Measurements from the supplement of paper PMC11451515.

Experiments:
Settings in all cases: 48 h
NOMO1 [1] = assay: cell viability relative to DMSO control; higher = less cytotoxic
Procedure, shortened: (§1)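 NOMO1, SEM and P12-Ichikawa leukemia cells spent at least four passages adapting to each medium before use. They were seeded at 500 cells/well (NOMO1, SEM) or 1000 cells/well (P12-Ichikawa) in 5 μl in 1536-well plates and pin-dosed with library compounds in DMSO at 11 threefold steps from 47 μM down to 0.79 nM. After 48 h at 37°C, CellTiter-Glo One luminescence was read. Viability is reported as a percentage of the DMSO wells on each plate, with cell-free wells as background.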

P12-Ichikawa [2] = assay: as above
Procedure, shortened: as §1

SEM cells [3] = assay: as above
Procedure, shortened: as §1

NOMO1 [4] = assay: AUC of viability dose-response curve (% viability x log10 dose units); higher = less sensitive
Procedure, shortened: (§2)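 Over 48 h at 37°C, leukemia cells in 1536-well plates (500 or 1000 cells/well), adapted to each medium, received library compounds in DMSO at 11 threefold doses from 47 μM to 0.79 nM. CellTiter-Glo One luminescence, normalised per plate to DMSO and cell-free wells, was fitted by a four-parameter log-logistic function of log10 dose. The area under the curve was then integrated by trapezoidal rule, after scaling curves above full viability and removing those that failed quality control.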

P12-Ichikawa [5] = assay: as above
Procedure, shortened: as §2

SEM cells [6] = assay: as above
Procedure, shortened: as §2

COc1ccc2c(c1OC)CN1CCc3cc4c(cc3C1C2)OCO4 (stereo not drawn)
cell viability [%]
Settings | NOMO1 [1] | P12-Ichikawa [2] | SEM cells [3]
HPLM + 10% dialyzed FBS, 0.000781 µM | 86.4 | 94.5 | 85.3
HPLM + 10% dialyzed FBS, 0.00234 µM | 82.4 | 96.2 | 80.1
HPLM + 10% dialyzed FBS, 0.00702 µM | 98.4 | 101 | 86.5
HPLM + 10% dialyzed FBS, 0.0211 µM | 99.3 | 104 | 104
HPLM + 10% dialyzed FBS, 0.0632 µM | 109 | 101 | 87.4
HPLM + 10% dialyzed FBS, 0.19 µM | 82.5 | 99.8 | 64.3
HPLM + 10% dialyzed FBS, 0.569 µM | 96.7 | 97.2 | 72.8
HPLM + 10% dialyzed FBS, 1.71 µM | 44.7 | 77 | 41.3
HPLM + 10% dialyzed FBS, 5.12 µM | 14.9 | 15.9 | 13
HPLM + 10% dialyzed FBS, 15.4 µM | 6.67 | 6.51 | 8.04
HPLM + 10% dialyzed FBS, 46.1 µM | 5.61 | 6.63 | 7.89
RPMI 5 mM glucose + 10% FBS, 0.000781 µM | 106 | 86.1 | 92.5
RPMI 5 mM glucose + 10% FBS, 0.00234 µM | 92.4 | 87 | 93.6
RPMI 5 mM glucose + 10% FBS, 0.00702 µM | 89.2 | 92.7 | 87
RPMI 5 mM glucose + 10% FBS, 0.0211 µM | 98.8 | 93.9 | 93.6
RPMI 5 mM glucose + 10% FBS, 0.0632 µM | 98.4 | 94 | 84.3
RPMI 5 mM glucose + 10% FBS, 0.19 µM | 89.9 | 89 | 45.6
RPMI 5 mM glucose + 10% FBS, 0.569 µM | 100 | 86.7 | 59.8
RPMI 5 mM glucose + 10% FBS, 1.71 µM | 42.6 | 53.6 | 20.2
RPMI 5 mM glucose + 10% FBS, 5.12 µM | 16 | 17.7 | 9.42
RPMI 5 mM glucose + 10% FBS, 15.4 µM | 6.1 | 5.68 | 7.3
RPMI 5 mM glucose + 10% FBS, 46.1 µM | 5.21 | 4.82 | 6.85
RPMI 5 mM glucose + 10% dialyzed FBS, 0.000781 µM | 88 | 84.8 | 79.6
RPMI 5 mM glucose + 10% dialyzed FBS, 0.00234 µM | 92.7 | 87.7 | 83.1
RPMI 5 mM glucose + 10% dialyzed FBS, 0.00702 µM | 93.3 | 92.6 | 96.7
RPMI 5 mM glucose + 10% dialyzed FBS, 0.0211 µM | 103 | 94.4 | 90.8
RPMI 5 mM glucose + 10% dialyzed FBS, 0.0632 µM | 102 | 92.5 | 99
RPMI 5 mM glucose + 10% dialyzed FBS, 0.19 µM | 92.2 | 83.2 | 55
RPMI 5 mM glucose + 10% dialyzed FBS, 0.569 µM | 92.9 | 83.5 | 56.5
RPMI 5 mM glucose + 10% dialyzed FBS, 1.71 µM | 49.3 | 52.9 | 28.8
RPMI 5 mM glucose + 10% dialyzed FBS, 5.12 µM | 20.5 | 13.4 | 11.3
RPMI 5 mM glucose + 10% dialyzed FBS, 15.4 µM | 5.52 | 7.72 | 8.19
RPMI 5 mM glucose + 10% dialyzed FBS, 46.1 µM | 4.95 | 6.88 | 8.01

AUC of viability dose-response curve
Settings | NOMO1 [4] | P12-Ichikawa [5] | SEM cells [6]
HPLM + 10% dialyzed FBS | 322 | 356 | 288
RPMI 5 mM glucose + 10% FBS | 330 | 316 | 263
RPMI 5 mM glucose + 10% dialyzed FBS | 331 | 311 | 271

CC(=O)NC[C@H]1CN(c2ccc(N3CCOCC3)c(F)c2)C(=O)O1
AUC of viability dose-response curve
Settings | NOMO1 [4] | P12-Ichikawa [5] | SEM cells [6]
HPLM + 10% dialyzed FBS | 415 | 465 | 475
RPMI 5 mM glucose + 10% FBS | 473 | 449 | 476
RPMI 5 mM glucose + 10% dialyzed FBS | 450 | 429 | 475

CCCCC[C@H](O)/C=C/[C@H]1[C@H](O)CC(=O)[C@@H]1C/C=C\CCCC(=O)O
AUC of viability dose-response curve
Settings | NOMO1 [4] | P12-Ichikawa [5] | SEM cells [6]
HPLM + 10% dialyzed FBS | 449 | 460 | 456
RPMI 5 mM glucose + 10% FBS | 453 | 457 | 458
RPMI 5 mM glucose + 10% dialyzed FBS | 440 | 457 | 460

C[C@@H]1CC[C@@]2(OC1)OC1CC3C4CC=C5CC(O)CCC5(C)C4CCC3(C)C1[C@@H]2C (stereo partly drawn)
cell viability [%]
Settings | NOMO1 [1] | P12-Ichikawa [2] | SEM cells [3]
HPLM + 10% dialyzed FBS, 0.000781 µM | 95.6 | 101 | 88.6
HPLM + 10% dialyzed FBS, 0.00234 µM | 84.6 | 105 | 48
HPLM + 10% dialyzed FBS, 0.00702 µM | 105 | 97 | 101
HPLM + 10% dialyzed FBS, 0.0211 µM | 114 | 104 | 100
HPLM + 10% dialyzed FBS, 0.0632 µM | 113 | 107 | 100
HPLM + 10% dialyzed FBS, 0.19 µM | 112 | 106 | 106
HPLM + 10% dialyzed FBS, 0.569 µM | 116 | 112 | 107
HPLM + 10% dialyzed FBS, 1.71 µM | 127 | 106 | 95.1
HPLM + 10% dialyzed FBS, 5.12 µM | 117 | 110 | 102
HPLM + 10% dialyzed FBS, 15.4 µM | 44.5 | 25.8 | 91.4
HPLM + 10% dialyzed FBS, 46.1 µM | 16.5 | 6.49 | 73.6
RPMI 5 mM glucose + 10% FBS, 0.000781 µM | 89.7 | 98.9 | 85.9
RPMI 5 mM glucose + 10% FBS, 0.00234 µM | 87.3 | 99.9 | 40.2
RPMI 5 mM glucose + 10% FBS, 0.00702 µM | 95 | 102 | 97.9
RPMI 5 mM glucose + 10% FBS, 0.0211 µM | 95.3 | 106 | 89.7
RPMI 5 mM glucose + 10% FBS, 0.0632 µM | 96 | 106 | 93.3
RPMI 5 mM glucose + 10% FBS, 0.19 µM | 90.6 | 99.3 | 93.2
RPMI 5 mM glucose + 10% FBS, 0.569 µM | 93 | 104 | 93.6
RPMI 5 mM glucose + 10% FBS, 1.71 µM | 98.5 | 108 | 90.4
RPMI 5 mM glucose + 10% FBS, 5.12 µM | 90.1 | 118 | 96.1
RPMI 5 mM glucose + 10% FBS, 15.4 µM | 48.5 | 86.8 | 76.3
RPMI 5 mM glucose + 10% FBS, 46.1 µM | 11.8 | 36.4 | 26.6
RPMI 5 mM glucose + 10% dialyzed FBS, 0.000781 µM | 90.6 | 92 | 86.3
RPMI 5 mM glucose + 10% dialyzed FBS, 0.00234 µM | 83.5 | 96.3 | 44.1
RPMI 5 mM glucose + 10% dialyzed FBS, 0.00702 µM | 97 | 92.3 | 93.9
RPMI 5 mM glucose + 10% dialyzed FBS, 0.0211 µM | 87.6 | 99.3 | 107
RPMI 5 mM glucose + 10% dialyzed FBS, 0.0632 µM | 87.4 | 97 | 88.6
RPMI 5 mM glucose + 10% dialyzed FBS, 0.19 µM | 93.1 | 106 | 104
RPMI 5 mM glucose + 10% dialyzed FBS, 0.569 µM | 91.9 | 105 | 92.4
RPMI 5 mM glucose + 10% dialyzed FBS, 1.71 µM | 90.8 | 105 | 84.1
RPMI 5 mM glucose + 10% dialyzed FBS, 5.12 µM | 88.3 | 119 | 101
RPMI 5 mM glucose + 10% dialyzed FBS, 15.4 µM | 73.4 | 73.8 | 85.5
RPMI 5 mM glucose + 10% dialyzed FBS, 46.1 µM | 29.1 | 16.8 | 61.5

AUC of viability dose-response curve
Settings | NOMO1 [4] | P12-Ichikawa [5] | SEM cells [6]
HPLM + 10% dialyzed FBS | 428 | 419 | 444
RPMI 5 mM glucose + 10% FBS | 402 | 453 | 394
RPMI 5 mM glucose + 10% dialyzed FBS | 407 | 444 | 415

CN(C)C/C=C/C(=O)Nc1cc2c(Nc3ccc(F)c(Cl)c3)ncnc2cc1O[C@H]1CCOC1
AUC of viability dose-response curve
Settings | NOMO1 [4] | P12-Ichikawa [5] | SEM cells [6]
HPLM + 10% dialyzed FBS | 339 | 337 | 320
RPMI 5 mM glucose + 10% FBS | 342 | 338 | 304
RPMI 5 mM glucose + 10% dialyzed FBS | 345 | 347 | 324
